Here are results for 9 molecules from the NIST ThermoML archive (doi:10.1016/j.fluid.2006.08.018).

The structures appear in SMILES notation. Numbers after ± are expanded uncertainties.

The conditions of data set [1]: Liquid; for mass density: 101.33 kPa.
Data set [2] can be described thus: refractive index (Na D-line) (dimensionless). The conditions noted are these: 101.33 kPa, Liquid, Standard Abbe refractometry.

On to `ClC=C(Cl)Cl` [trichloroethene], for which the mass density in data set [1] (293.15 K) is 1464 ± 4.6 kg/m3. For the same molecule, in data set [1] (357.85 K), the “vapor or sublimation pressure” value is on record as 95.5 ± 4 kPa. The refractive index in data set [2] (293.15 K) is 1.4782 ± 0.0008.
For `CCO` [ethanol], the mass density in data set [1] (298.15 K) amounted to 784.9 ± 2.1 kg/m3. Also, in data set [1] (349.95 K), the “vapor or sublimation pressure” value turned out to be 95.5 ± 4 kPa. Also, the refractive index in data set [2] (298.15 K) was determined as 1.3591 ± 0.0008.
As for `CCC(C)O` (configuration not stated) [butan-2-ol], the mass density in data set [1] (298.15 K) came out at 802.4 ± 2.2 kg/m3. Besides, the “vapor or sublimation pressure” value in data set [1] (371.25 K) is recorded as 95.5 ± 4 kPa. In addition, in data set [2] (298.15 K), the refractive index was determined as 1.3953 ± 0.0008.
Turning to `CC(C)(C)O` [2-methylpropan-2-ol], in data set [1] (298.15 K), the mass density turned out to be 781.2 ± 2.1 kg/m3. The “vapor or sublimation pressure” value in data set [1] (354.15 K) is listed as 95.5 ± 4 kPa. For the same molecule, the refractive index in data set [2] (298.15 K) is 1.3852 ± 0.0008.
For `CC(C)CO` [2-methyl-1-propanol], the mass density in data set [1] (298.15 K) came out at 797.8 ± 2.1 kg/m3. Further, in data set [1] (379.76 K), the “vapor or sublimation pressure” value amounted to 95.5 ± 5 kPa. Further, the refractive index in data set [2] (298.15 K) is 1.3939 ± 0.0008.
Consider `ClC(Cl)C(Cl)Cl` [1,1,2,2-tetrachloroethane], for which the mass density in data set [1] (293.15 K) is 1594.5 ± 5.1 kg/m3. Moreover, the “vapor or sublimation pressure” value in data set [1] (417.25 K) was 95.5 ± 4 kPa. Besides, the refractive index in data set [2] (293.15 K) came to 1.494 ± 0.0008.
Take `ClC(Cl)=C(Cl)Cl` [tetrachloroethene]: in data set [1] (293.15 K), the mass density came out at 1622.8 ± 5.3 kg/m3. The “vapor or sublimation pressure” value in data set [1] (392.15 K) is on record as 95.5 ± 4 kPa. Further, the refractive index in data set [2] (293.15 K) is reported as 1.5058 ± 0.0008.
Consider `ClCCCl` [1,2-dichloroethane], for which the mass density in data set [1] (293.15 K) worked out at 1252.1 ± 3.8 kg/m3. Moreover, the “vapor or sublimation pressure” value in data set [1] (355.15 K) was 95.5 ± 4 kPa. For the same molecule, the refractive index in data set [2] (293.15 K) is recorded as 1.4448 ± 0.0008.
Consider `CN(C)C=O` [dimethylformamide], for which the mass density in data set [1] (298.15 K) is recorded as 943.9 ± 2.5 kg/m3. The “vapor or sublimation pressure” value in data set [1] (421.15 K) is 95.5 ± 4 kPa. The refractive index in data set [2] (298.15 K) is 1.4282 ± 0.0007.
